“Also recorded” adds a separate entry of the source.
How the values were obtained:
[1] = Time-dependent DOX release from prodrugs in presence of H2O2 (LCMS); type: physicochemical; details: prodrug 10 μM, H2O2 10 μM, ammonium bicarbonate buffer 0.1 M pH 7.4, room temperature, over two hours
Experimental: FIG. 1. Time-course for DOX release from prodrugs (10 μM) in ammonium bicarbonate buffer (0.1 M, pH 7.4) at room temperature and in the presence of H2O2 (10 μM). A calibration curve was used to determine the concentration of free DOX at each time point by LCMS. Plotted as the mean±standard error of the mean (SEM) from three independent experiments.
To confirm this reactivity, we incubated c1 (10 μM) with H2O2 (10 μM) at room temperature in ammonium bicarbonate buffer (0.1 M, pH 7.4). At various time points, an aliquot was removed and analyzed by LCMS. Using a calibration curve, we determined the percentage of released DOX over the course of two hours. […] For comparison, we also assessed the reactivity of c2 towards the same concentration of peroxides. Like c1, c2 also functioned as an H2O2-activated DOX prodrug, but with faster kinetics, as quantitative release of free DOX was realized within 60 min.
A stock solution of c1 (or c2, 10 mM) in DMSO and H2O2 (10 mM) in ammonium bicarbonate buffer (0.1M, pH 7.4) were prepared immediately prior to use. […] At various time points (0 min, 10 min, 35 min, 60 min, 80 min, 100 min, 120 min), a 1 mL (inject volume 60 μL) aliquot was removed and analyzed by LC-MS (using a C18 analytical column and eluting at 0.4 mL/min with a linear gradient (20-90% v/v) MeOH/H2O (0-2 min), followed by 90% v/v MeOH/H2O (2-19 min)). […]

H9C2 cardiomyoblasts = experiment: Uptake into H9C2 cardiomyoblasts by live-cell confocal microscopy; type: cell-based, rat
Experimental: FIG. 4. Uptake of DOX and prodrugs c1 and c2 by H9C2 cardiomyoblasts. H9C2 cells cultures grown overnight on chambered coverslips in media with 10% serum were switched to Fluorobrite DMEM imaging media supplemented with 5% serum and prepared for live-cell imaging on a Zeiss LSM 880 confocal microscope, then 10 µM of c1, c2, or DOX was added and images were taken every 10 min (averaged every 30 min) for 18 h. Approximately 20 cells present in each field of view were averaged for each sample and time point; normalized and averaged data from two replicates each±SEM were included for c1 and DOX. An earlier independent trial yielded very similar results (Fig. S1).
Uptake of DOX and prodrugs into H9C2 cardiomyoblasts. Before comparing the biological effects of treatments by DOX and prodrugs, it was important to know their time dependence of accumulation into the H9C2 cardiomyoblasts under investigation. For this, confocal microscopy of live cells in culture was used to track in real time the accumulation of the fluorescent molecules into the cells, allowing direct comparisons between c1, c2 and Dox. […] Thus, any biological effects observed using c1 rather than DOX will not be due to limited cellular uptake.
To evaluate drug uptake, H9C2 cells were plated at a density of 20,000 per well on 24 well #1.5 polymer chambered coverslips (Ibidi) in media including 10% FBS and allowed to adhere for ~20 h. Prior to imaging analysis, the media was replaced with Fluorobrite DMEM imaging media (Gibco) supplemented with 5% FBS. To 1 mL of media in each well was added either vehicle (DMSO), or a 20 mM stock solution of c1, c2, or DOX to give final concentrations of 10 or 20 µM drug and 0.1% DMSO. […] DOX and the prodrugs were detected with excitation by a 458 nm laser at 0.3% and emission from 535-648 nm.
Each position consisted of a 3 slice z-stack that was compressed with a maximum intensity projection for analysis. […] The mean intensity for both channels was calculated, normalized, and then averaged to 30 min time points.

Nrf2 = Nrf2 and HO-1 immunoblots in H9C2 cells; type: cell-based, rat; details: H9C2, relative to DMSO vehicle
Source text: The bar graphs below represent the mean±SEM. Results were statistically different between c1 and DOX in both cases (p=0.002 and p=0.019), and more marginally so between c1 and DMSO (p=0.011 and p.=0.025), for Nrf2 and HO-1, respectively.

[2] = Selectivity of DOX release from c1 towards biological analytes (LCMS); type: physicochemical; details: 80 min
Experimental: FIG. 2. Percentage of released DOX from c1 in response to various biological analytes during an 80 min incubation period at room temperature: (1) ammonium bicarbonate buffer (0.1 M, pH 7.5), (2) 10 μM H2O2, (3) 100 μM cysteine, (4) 100 μM homocysteine, (5) 1 mM glutathione, (6) 10 μM glutathione disulfide, (7) 10 µM sodium nitrite, (8) 10 μM sodium hypochlorite, (9) 10 μM superoxide, (10) 10 μM peroxynitrite. A calibration curve was used to determine the concentration of free DOX in response to each analyte. Plotted as the mean±SEM from three independent experiments.
Selectivity of c1. […] After a reaction time of 80 min, an aliquot was removed and analyzed by LCMS. […]
Analyte stock solutions of glutathione (10 mM), oxidized glutathione (10 mM), homocysteine (10 mM), L-cysteine (10 mM), sodium nitrite (NaNO2 10 mM), superoxide (KO2, 10 mM), sodium peroxynitrite (NaOONO, 10 mM), and sodium hypochlorite (NaClO, 10 mM), were prepared in ammonium bicarbonate buffer (0.1 M pH 7.4). […] After reacting for 80 min, a 1 mL (inject volume 60 μL) aliquot was removed and analyzed by LC-MS (using a C18 analytical column and eluting at 0.4 mL/min with a linear gradient (20-90% v/v) MeOH/H2O (0-2 min), followed by 90% v/v MeOH/H2O (2-19 min)). The signals in the chromatogram were recorded at 500 nm and the peak corresponding to free DOX (7.0 min) was integrated.

mitochondrial ROS = experiment: Mitochondrial ROS in cardiomyoblasts; details: compared with DOX

COc1cccc2c1C(=O)c1c(O)c3c(c(O)c1C2=O)C[C@@](O)(C(=O)CO)C[C@@H]3O[C@H]1C[C@H](NC(=S)OCc2ccc(B3OC(C)(C)C(C)(C)O3)cc2)[C@H](O)[C@H](C)O1 [c1]
percentage of released DOX [1]: greater than 70%
time to maximal signal (cell accumulation) (H9C2 cardiomyoblasts; H9C2 cells, 10 μM, fluorescence): ~ 2 h
accumulation in cells compared with DOX (H9C2 cardiomyoblasts; imaging over 18 h): accumulated rapidly
HO-1 expression (immunoblot) (Nrf2): largely preserved Nrf2 activation and HO-1 expression; also recorded: only moderately suppressive
Nrf2 activation (immunoblot) (Nrf2): largely preserved Nrf2 activation and HO-1 expression; also recorded: only moderately suppressive
free DOX observed by LCMS ([2]; in the presence of H2O2 (10 μM)): significant levels of free DOX
stability (DOX release) ([2]; buffer alone, reductants (cysteine, homocysteine, glutathione), other oxidants (glutathione disulfide, sodium nitrite, sodium hypochlorite, superoxide, peroxynitrite)): relatively stable
mitochondrial ROS levels (mitochondrial ROS): lower levels of mitochondrial ROS

Source: patent US20260256922A1, “PRODRUGS USEFUL FOR REDUCING ANTHRACYCLINE CARDIOTOXICITY” (WAKE FOREST UNIVERSITY HEALTH SCIENCES, priority 2022, published 2026)
